The source of these data is PubChem BioAssay (NCI).

Among the test systems are MCF7 breast; UACC-257 melanoma; NCI-H460 lung; OVCAR-8 ovarian; MDA-MB-435; UACC-62 melanoma; K-562 leukemia; ACHN renal; HCT-15 colon; SK-MEL-2 melanoma.
Assay in all cases: DTP human tumour cell line panel, 48 h

“And” between values parts separate entries of the source, which are not always exact repeats. Equal entries are not always repeated.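 Protocol summary: plate cells (96-well), add compound at 5 concentrations, incubate 48 h, interpolate endpoints linearly. GI50 is the concentration that inhibits growth by half. TGI: total growth inhibition.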 A value given as a limit tells only on which side of the number the result lay.

For orientation: TGI means the concentration giving total growth inhibition. Low values mean greater sensitivity of the cells, high ones lower sensitivity of the cells. Regarding `O=C(CN1CCCCC1)c1ccc2c(c1)Sc1ccccc1O2`, the TGI is 30.9 µM with MCF7 breast; 39.6 µM in the experiment on UACC-257 melanoma; 29.5 µM with NCI-H460 lung; 33.2 µM in the experiment on OVCAR-8 ovarian; 33.9 µM in the experiment on MDA-MB-435; 25.7 µM in the experiment on UACC-62 melanoma. For the same molecule, the total growth inhibition concentration (TGI) in the experiment with K-562 leukemia was more than 100 µM; in the experiment with ACHN renal, 27.7 µM; with HCT-15 colon, 24.6 µM; with SK-MEL-2 melanoma, 32.8 µM.

On to `O=C(NNc1cn[nH]c(=O)c1Cl)/C(=C/c1ccc2c(c1)OCO2)NC(=O)c1ccccc1`, for which the TGI in the experiment on MCF7 breast, with UACC-257 melanoma, in the experiment with NCI-H460 lung, with OVCAR-8 ovarian, in the experiment on MDA-MB-435 and in the experiment with UACC-62 melanoma was more than 100 µM each time. In addition, the TGI with ACHN renal, with HCT-15 colon and in the experiment with SK-MEL-2 melanoma was more than 100 µM in each case.

The term GI50 denotes the concentration giving 50% growth inhibition. In the case of `CN(C)CCCNc1c2ccccc2nc2cccc([N+](=O)[O-])c12`, the total growth inhibition concentration (TGI) was 0.00188 µM with MCF7 breast; 0.00749 µM and 0.0452 µM with UACC-257 melanoma; 0.00781 µM with NCI-H460 lung; 0.00242 µM in the experiment on MDA-MB-435; more than 100 µM in the experiment on K-562 leukemia; 0.00142 µM in the experiment with HCT-15 colon. Further, the TGI in the experiment on SK-MEL-2 melanoma was 0.00221 µM. Further, the 50% growth inhibitory concentration (GI50) with UACC-257 melanoma was 0.0207 µM; in the experiment with OVCAR-8 ovarian, less than 0.001 µM.

On to `O=C(OCCN1CCCCC1)C(c1ccccc1)C1(O)CCSCC1` (centres undefined), for which the concentration for total growth inhibition (TGI) in the experiment with MCF7 breast, in the experiment with UACC-257 melanoma, with NCI-H460 lung, in the experiment with OVCAR-8 ovarian, with MDA-MB-435 and in the experiment with UACC-62 melanoma was more than 100 µM throughout. Besides, the concentration for total growth inhibition (TGI) in the experiment on K-562 leukemia, with ACHN renal, in the experiment on HCT-15 colon and in the experiment with SK-MEL-2 melanoma was more than 100 µM throughout.

`Cc1ccc(-n2c(O)c3c(N)n[nH]c3c(C#N)c2=O)cc1`: the concentration for total growth inhibition (TGI) in the experiment on MCF7 breast, in the experiment with UACC-257 melanoma, in the experiment with NCI-H460 lung, in the experiment with OVCAR-8 ovarian, in the experiment with MDA-MB-435 and with UACC-62 melanoma was more than 100 µM in each case. The TGI in the experiment on K-562 leukemia, in the experiment on HCT-15 colon and in the experiment on SK-MEL-2 melanoma was more than 100 µM throughout.

Consider `COc1ccc(C(=C(I)c2ccccc2)c2ccc(OC)cc2)cc1`, for which the TGI in the experiment on MCF7 breast, with UACC-257 melanoma, with NCI-H460 lung, with OVCAR-8 ovarian, in the experiment with MDA-MB-435 and in the experiment with UACC-62 melanoma was more than 100 µM throughout. The concentration for total growth inhibition (TGI) in the experiment with K-562 leukemia, in the experiment on ACHN renal, with HCT-15 colon and with SK-MEL-2 melanoma was more than 100 µM throughout.

Consider `COc1ccccc1NC(=S)N/N=C(/C)c1ccccn1`, for which the TGI is more than 100 µM in the experiment on MCF7 breast; 3.22 µM with NCI-H460 lung; more than 100 µM with OVCAR-8 ovarian; more than 100 µM in the experiment with MDA-MB-435; more than 100 µM in the experiment on K-562 leukemia; 12.9 µM with ACHN renal. In addition, the TGI with HCT-15 colon was more than 100 µM; in the experiment with SK-MEL-2 melanoma it was more than 88.7 µM.

For `O=C1C=C2CO[C@H]3OC[C@H](O)[C@@H]1[C@@H]23`, the TGI was more than 100 µM with MCF7 breast; 86.4 µM in the experiment with UACC-257 melanoma; more than 100 µM in the experiment with NCI-H460 lung; more than 100 µM in the experiment with OVCAR-8 ovarian; more than 100 µM in the experiment with MDA-MB-435; more than 100 µM in the experiment on UACC-62 melanoma. Further, the TGI in the experiment on K-562 leukemia was more than 100 µM; in the experiment with ACHN renal, more than 100 µM; in the experiment with HCT-15 colon, more than 100 µM; with SK-MEL-2 melanoma, 37.3 µM.

`O=c1[nH]c(=O)n(COCc2ccccc2)c2ccc([N+](=O)[O-])cc12`: the TGI in the experiment with MCF7 breast, in the experiment on UACC-257 melanoma, in the experiment on OVCAR-8 ovarian, in the experiment with MDA-MB-435, in the experiment with UACC-62 melanoma and with K-562 leukemia was more than 100 µM each time. The TGI in the experiment with ACHN renal, in the experiment on HCT-15 colon and in the experiment with SK-MEL-2 melanoma was more than 100 µM in each case.

For the molecule `CC1(C)[C@@H](Cn2cnc3c(=O)[nH]c(N)nc32)CC[C@@]1(C)CO`, the TGI with MCF7 breast, in the experiment on UACC-257 melanoma, in the experiment with MDA-MB-435, with UACC-62 melanoma, with K-562 leukemia and in the experiment on ACHN renal was more than 100 µM in each case. Further, the TGI in the experiment with HCT-15 colon and in the experiment with SK-MEL-2 melanoma was more than 100 µM each time.

On to `O=C(Nc1nnc(-c2ccccc2)o1)C(SC(=S)N1CCOCC1)c1ccccc1` (centres undefined), for which the concentration for total growth inhibition (TGI) is more than 100 µM with MCF7 breast; more than 100 µM with UACC-257 melanoma; 66.1 µM in the experiment with NCI-H460 lung; more than 100 µM in the experiment on OVCAR-8 ovarian; more than 100 µM in the experiment on MDA-MB-435; more than 100 µM in the experiment on K-562 leukemia. Further, the TGI with ACHN renal, in the experiment with HCT-15 colon and in the experiment on SK-MEL-2 melanoma was more than 100 µM in each case.

On to `C=C(CC(=O)Nc1ccc(C(=O)OC)o1)C(=O)OC`, for which the TGI in the experiment with MCF7 breast is 54 µM; in the experiment with UACC-257 melanoma, 44.5 µM; with NCI-H460 lung it was more than 100 µM; in the experiment with OVCAR-8 ovarian, more than 100 µM; with MDA-MB-435 it was 59 µM; in the experiment on UACC-62 melanoma, 72.4 µM. In addition, the TGI with ACHN renal came to 34.6 µM; in the experiment on HCT-15 colon it was 59.1 µM; with SK-MEL-2 melanoma, 46.7 µM.

As for `CC(=O)NC1C(OCc2ccccc2)OC(CO)C(O)C1OCC(=O)NC(C)C(=O)NC(CCC(=O)NCCCCCNc1c2ccccc2nc2cccc([N+](=O)[O-])c12)C(N)=O` (centres undefined), the TGI with MCF7 breast is less than 0.0001 µM; with UACC-257 melanoma it was 0.00332 µM; in the experiment on OVCAR-8 ovarian, 0.017 µM; in the experiment on MDA-MB-435, less than 0.0001 µM; in the experiment with K-562 leukemia, less than 0.0001 µM; in the experiment with ACHN renal, less than 0.0001 µM. For the same molecule, the concentration for total growth inhibition (TGI) in the experiment with HCT-15 colon and in the experiment with SK-MEL-2 melanoma was less than 0.0001 µM throughout.

Turning to `CC(C)[C@H]1NC(=O)[C@H]2N=C(O[C@@H]2C)[C@@H]2CCCN2C(=O)[C@H](Cc2ccccc2)NC(=O)[C@@H]2CSC(=N2)[C@@H](Cc2ccccc2)NC(=O)[C@@H]2CSC1=N2`, the TGI in the experiment with MCF7 breast, in the experiment with UACC-257 melanoma, in the experiment on OVCAR-8 ovarian, in the experiment on MDA-MB-435, in the experiment on UACC-62 melanoma and in the experiment with K-562 leukemia was more than 100 µM in each case. For the same molecule, the total growth inhibition concentration (TGI) in the experiment with ACHN renal, in the experiment with HCT-15 colon and in the experiment on SK-MEL-2 melanoma was more than 100 µM in each case.

On to `CCN(CC)C(=S)N/N=C/c1ccccn1`, for which the TGI in the experiment with MCF7 breast was 26 µM; with MDA-MB-435, more than 100 µM; in the experiment on UACC-62 melanoma it was 0.392 µM; with K-562 leukemia, more than 100 µM; with ACHN renal, 10.1 µM; in the experiment with HCT-15 colon it was more than 100 µM. This molecule also registered a concentration for total growth inhibition (TGI) in the experiment with SK-MEL-2 melanoma of more than 100 µM.
